Assay results published in the CheMixHub viscosity set.

Experiment: xn = mol fraction of the nth substance listed

CCCCOCCO + CCCO
viscosity [mPa·s], 101 kPa
Details | x1 = 0.3032 | x1 = 0.8553 | x1 = 0.9516
298.15 K | – | 2.725 | –
303.15 K | 1.925 | – | 2.615

CCOCCOCCOCC + CCCO
298.15 K, 101.33 kPa
Details | viscosity [mPa·s]
x1 = 0.007 | 1.918
x1 = 0.0129 | 1.894
x1 = 0.0249 | 1.844
x1 = 0.0395 | 1.788
x1 = 0.0516 | 1.747
x1 = 0.0695 | 1.687
x1 = 0.097 | 1.611
x1 = 0.1283 | 1.541
x1 = 0.1736 | 1.458
x1 = 0.2229 | 1.396
x1 = 0.2672 | 1.354
x1 = 0.3115 | 1.32
x1 = 0.3638 | 1.291
x1 = 0.4026 | 1.28
x1 = 0.4592 | 1.259
x1 = 0.5239 | 1.243
x1 = 0.5856 | 1.231
x1 = 0.6363 | 1.227
x1 = 0.6742 | 1.225
x1 = 0.7119 | 1.224
x1 = 0.7662 | 1.222
x1 = 0.8311 | 1.226
x1 = 0.8815 | 1.231
x1 = 0.9142 | 1.235
x1 = 0.9468 | 1.239
x1 = 0.9756 | 1.24

COC(=O)c1ccccc1 + CCCO
viscosity [mPa·s], 100 kPa
Details | x1 = 0.05 | x1 = 0.1 | x1 = 0.2 | x1 = 0.3 | x1 = 0.4 | x1 = 0.5 | x1 = 0.6 | x1 = 0.65 | x1 = 0.8 | x1 = 0.9
293.2 K | 2.016 | 1.887 | 1.724 | 1.65 | 1.622 | 1.621 | 1.649 | 1.669 | 1.76 | 1.872
298.2 K | 1.794 | 1.685 | 1.547 | 1.487 | 1.464 | 1.466 | 1.492 | 1.511 | 1.594 | 1.693
303.2 K | 1.601 | 1.509 | 1.395 | 1.344 | 1.327 | 1.332 | 1.357 | 1.375 | 1.453 | 1.54
308.2 K | 1.434 | 1.356 | 1.262 | 1.22 | 1.209 | 1.215 | 1.239 | 1.257 | 1.33 | 1.41
313.2 K | 1.288 | 1.223 | 1.145 | 1.112 | 1.104 | 1.113 | 1.138 | 1.154 | 1.223 | 1.297
